# Reference: patent US6638945B1, “Quinoline derivatives as inhibitors of MEK enzymes” (AstraZeneca AB, priority 1999, dated 2003)
# Target: human p45MEK1 (GST-MEK) (Homo sapiens, UniProt Q02750)
# Assay: Assay for inhibitors of the MAP kinase pathway (coupled GST-MEK/GST-MAPK/MBP 33P assay)
# Assay type: biochemical
# Details: GST-MEK activated by c-raf, 33P incorporation into myelin basic protein
# Procedure: Assay for inhibitors of the MAP kinase pathway
# To evaluate inhibitors of the MAPK pathway a coupled assay was carried out which measures phosphorylation of serine/threonine residues present in the substrate in the presence or absence of inhibitor. Recombinant glutathione S-transferase fusion protein containing human p45MEK1 (GST-MEK) was activated by c-raf (Sf9 insect cell lysate from triple baculoviral infection with c-raf/ras/lck) and used for the assay. Active GST-MEK was first used to activate a recombinant glutathione S-transferase fusion protein containing p44MAP kinase (GST-MAPK) in the presence of ATP and Mg^2+ for 60 min at room temperature in the presence or absence of potential inhibitors. The activated GST-MAPK was then incubated with myelin basic protein (MBP) as substrate for 10 min at room temperature in the presence of ATP, Mg^2+ and ^33P-ATP. The reaction was stropped by addition of 20% v/v phosphoric acid. Incorporation of ^33P into the myelin basic protein was determined by capture of the substrate on a filter mat, washing and counting using scintillation methods. The extent of inhibition was determined by comparison with untreated controls.
# The final assay solution contained 10 mM Tris, pH 7.5, 0.05 mM EGTA, 8.33 μM [γ^33P]ATP, 8.33 mM Mg(OAc)2, 0.5 mM sodium orthovanadate, 0.05% w/v BSA, 6.5 ng GST-MEK, 1 μg GST-MAPK and 16.5 μg MBP in a reaction volume of 60 μl.
# human p45MEK1 (GST-MEK), sequence (Q02750 whole entry): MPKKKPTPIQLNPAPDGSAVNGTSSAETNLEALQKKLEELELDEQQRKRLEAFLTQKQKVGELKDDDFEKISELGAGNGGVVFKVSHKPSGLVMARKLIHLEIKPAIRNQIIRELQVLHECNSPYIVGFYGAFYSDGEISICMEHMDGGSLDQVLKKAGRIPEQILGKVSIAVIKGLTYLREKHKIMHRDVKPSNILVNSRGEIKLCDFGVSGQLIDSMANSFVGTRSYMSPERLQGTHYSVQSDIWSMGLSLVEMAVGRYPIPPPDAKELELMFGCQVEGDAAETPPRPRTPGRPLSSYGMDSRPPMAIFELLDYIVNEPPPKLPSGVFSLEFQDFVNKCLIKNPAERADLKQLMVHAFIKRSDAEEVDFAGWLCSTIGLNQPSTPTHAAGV
smiles,measurement,value
COc1cc2ncc(F)c(Nc3ccc(Oc4ccccc4)cc3)c2cc1OC [Compound No 5],IC50,550 nM
